Source: patent US20180000798A1, “USE OF ACLIDINIUM” (Almirall, S.A., priority 2012, published 2018)
Read-outs that look alike come from different tables or passages of the source.

Assays:
[1] = tested on: patients with moderate to severe COPD; assay: Phase III randomized, double-blind, placebo controlled crossover trial; physical activity measured with multisensor armband; type: in vivo; conditions: week 3; for Δ Comparison versus placebo, change from baseline in daily active energy expenditure / Δ Comparison versus placebo, change from baseline in duration of at least moderate activity: 400 micrograms aclidinium bromide per inhalation twice-daily, p < 0.05
Excerpt: In a Phase III randomized, double-blind, placebo controlled, 2 period crossover trial, patients with moderate to severe COPD received a dose of aclidinium equivalent to a metered nominal dose of 400 micrograms of aclidinium bromide per inhalation twice-daily (in the morning, 9 am, and in the evening, […]) and placebo for two periods of 3 weeks, with a washout period of 2 weeks between treatment periods.
Patients were randomised to receive either a dose of aclidinium equivalent to a metered nominal dose of 400 micrograms of aclidinium bromide per inhalation twice-daily in the first period followed by placebo in the second period, or to receive placebo in the first period followed by aclidinium bromide 400 micrograms twice-daily in the second period. Both aclidinium bromide and placebo were administered with a Genuair® multidose dry powder inhaler.
Physical activity (as minutes of at least moderate activity per day and as average active energy expenditure expressed in Kcal) was measured in the last week of the treatment with aclidinium and placebo using a multisensor armband (SenseWear™ Pro Armband; BodyMedia, Pittsburgh, Pa., USA), was worn on the upper right over the triceps muscle, according to the method described in Watz B et al, Eur Respir J, 2009; 33: 262-272. The multisensory armband incorporates a biaxial accelerometer that records steps per day and physiological sensors of energy expenditure.
A valid period of measurement was defined as 5 days of measurement with the patients wearing the accelerometer at least 22 hours per day.
The Intention-to-Treat (ITT) population included 109 patients.

[2] = Solubility of aclidinium bromide; type: physicochemical
Excerpt: Aclidinium bromide is a white powder with a molecular formula of C26H30NO4S2Br and a molecular mass of 564.56.

patients with COPD = conditions: previous trials, cited from earlier work
[3] = metered nominal dose 400 micrograms aclidinium bromide per inhalation twice-daily, adjusted mean, n = 85

Row | SMILES | Δ Comparison versus placebo, change from baseline in daily active energy expenditure [1] | Δ Comparison versus placebo, change from baseline in duration of at least moderate activity [1] | Δ Comparison versus placebo, change from baseline in daily active energy expenditure ([1]; listed as aclidinium bromide) | Δ Comparison versus placebo, change from baseline in duration of at least moderate activity ([1]; listed as aclidinium bromide) | Change from baseline in daily active energy expenditure [1, 3] | Change from baseline in duration of at least moderate activity [1, 3] | Solubility in ethanol ([2]; ethanol) | Solubility in methanol ([2]; methanol) | Solubility in water ([2]; water) | Improvement in physical activity versus placebo (patients with COPD; listed as tiotroplum) | Improvement in physical activity versus placebo (patients with COPD)
1 | O=C(O[C@H]1C[N+]2(CCCOc3ccccc3)CCC1CC2)C(O)(c1cccs1)c1cccs1 [Aclidinium, 3(R)-(2-hydroxy-2,2-dithien-2-ylacetoxy)-1-(3-phenoxypropyl)-1-azoniabicyclo[2.2.2] octane] | 55 (p < 0.05) Kcal | 10 (p < 0.05) minutes | 55 kcal | 10 min | 21.9 kcal | 4.2 min | very slightly soluble | sparingly soluble | very slightly soluble |  | 
2 | C[N+]1(C)[C@@H]2C[C@@H](OC(=O)C(O)(c3cccs3)c3cccs3)C[C@H]1[C@@H]1O[C@@H]12 [tiotropium] |  |  |  |  |  |  |  |  |  | not observed | not statistically demonstrated improvements in physical activity
